Assays:
Format in all cases: cell-based
[1] = tested on: RNASEH2B+/+ and RNASEH2B−/− cells; experiment: Synergy between ATR inhibitor and PARP inhibitor in RNASEH2B+/+ and RNASEH2B−/− cells; conditions: combination of ATR inhibitor and PARP inhibitor
Description: An ATR inhibitor (e.g., compound 121) may synergize with a PARP inhibitor (e.g., 5-[4-[(7-ethyl-6-oxo-5H-1,5-naphthyridin-3-yl)methyl]piperazin-1-yl]-N-methyl-pyridine-2-carboxamide) in RNASEH2B+/+ and RNASEH2B−/− cells. Importantly, in RNASEH2B−/− cells, synergy (e.g., maximum synergy) may be achieved at lower concentrations of an ATR inhibitor (e.g., compound 121) and lower concentrations of the PARP inhibitor (e.g., 5-[4-[(7-ethyl-6-oxo-5H-1,5-naphthyridin-3-yl)methyl]piperazin-1-yl]-N-methyl-pyridine-2-carboxamide) than in RNASEH2B+/+ cells. As a result, the apparent IC50 of the PARP inhibitor may shift in the presence of the ATR inhibitor (e.g., compound 121).
In addition to selecting a sensitized genetic background, tolerability of the combination treatment with an ATR inhibitor and PARP inhibitor can be improved by optimizing dosing schedules (Fang et al., Cancer Cell, 35:851-867, 2019). To guide the combined dosing of the ATR inhibitor (e.g., compound 121) and the PARP inhibitor (e.g., 5-[4-[(7-ethyl-6-oxo-5H-1,5-naphthyridin-3-yl)methyl]piperazin-1-yl]-N-methyl-pyridine-2-carboxamide) in RNASEH2B-deficient tumor cells, a continuous longer (e.g., 168 h) concomitant treatment of RNASEH2B+/+ and −/− cells with both compounds may be compared to a shorter (e.g., either a 48 or 72 h) treatment followed by removal of compounds and growth in drug-free media. […]

[2] = tested on: isogenic cell lines lacking CDK12 or BRCA2; experiment: 48-hr combination treatment of isogenic cell lines lacking CDK12 or BRCA2; conditions: 48-hr treatment with combination
Description: The optimized dosing schedule may be applicable to cells carrying mutations not only in RNASEH2B, but additional genes.

[3] = tested on: tumor cells that employ the Alternative Lengthening of Telomeres (ALT) mechanism; experiment: Combination against ALT tumor cells; conditions: combination of ATR inhibitor with PARP inhibitor
Description: In addition to tumors carrying the above-mentioned genetic alterations, the combination of ATR inhibitors (e.g., Compound 121) with PARP inhibitors (e.g., 5-[4-[(7-ethyl-6-oxo-5H-1,5-naphthyridin-3-yl)methyl]piperazin-1-yl]-N-methyl-pyridine-2-carboxamide) may be effective against tumor cells that employ the Alternative Lengthening of Telomeres (ALT) mechanism.

SMILES	synergy of ATR inhibitor with PARP inhibitor [1]	synergistic sensitization [2]	effectiveness of combination against ALT tumor cells [3]
C[C@@H]1COCCN1c1cc([C@@]2(O)C[C@H]3CC[C@@H](C2)O3)c2cnn(-c3cc[nH]n3)c2n1 [compound 121]	synergize	synergistically sensitize	effective
CCc1cc2ncc(CN3CCN(c4ccc(C(=O)NC)nc4)CC3)cc2[nH]c1=O [5-[4-[(7-ethyl-6-oxo-5H-1,5-naphthyridin-3-yl)methyl]piperazin-1-yl]-N-methyl-pyridine-2-carboxamide]	synergize	synergistically sensitize	effective
